Results taken from the supplement of paper PMC5579334.

Legend:
[1] = test system: HS-PSS; assay: drug sensitivity score (DSS, CellTox-Green cytotoxicity, 72 h) (DSS (dimensionless)); higher = more cytotoxic; extreme values may be limits of the assay
Summary of the method: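 MPNST cell lines and primary human Schwann cells were incubated 72 h at 37 °C in 384-well plates holding five 10-fold compound dilutions. CellTox-Green was added before seeding at a final 1:1000 dilution and reported fluorescence from DNA released by disrupted cells. Signals were scaled to vehicle and positive-control wells, and cultures failing plate quality control were dropped. Drug sensitivity score and relative IC50 come from four-parameter logistic fits, with IC50 censored at the top concentration.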

[2] = test system: HS-Sch-2; assay: drug sensitivity score (DSS, CellTiter-Glo viability, 72 h) (DSS (dimensionless)); higher = more sensitive; extreme values may be limits of the assay
Summary of the method: (§1)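 Viability was scored by CellTiter-Glo ATP luminescence, scaled from vehicle to positive-control wells, with duplicates averaged where present. The cells, MPNST lines and primary human Schwann cells at 750–1000 per well, sat 72 h at 37 °C, 5% CO2, in 384-well plates preprinted with each compound at five concentrations in 10-fold steps. Four-parameter logistic fits were run on the data. These fits give drug sensitivity score and relative IC50 censored at the top concentration, and percent inhibition is reported at the top concentration.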

[3] = test system: HS-PSS; assay: as above
Summary of the method: as §1

[4] = test system: YST-1; assay: as above
Summary of the method: as §1

[5] = test system: HS-Sch-2; assay: % inhibition of CellTiter-Glo viability at highest tested concentration (72 h), relative to DMSO and benzethonium chloride controls; higher = more inhibition
Summary of the method: as §1

[6] = test system: HS-PSS; assay: as above
Summary of the method: as §1

[7] = test system: YST-1; assay: as above
Summary of the method: as §1

Row | Compound | drug sensitivity score [1] | drug sensitivity score [2] | drug sensitivity score [3] | drug sensitivity score [4] | % inhibition [5] | % inhibition [6] | % inhibition [7]
1 | Cn1cc(-c2ccc3nnc(Sc4ccc5ncccc5c4)n3n2)cn1 [SGX-523] (max concentration tested 5000 nM) | 0 | 0 | 0 | 0 | 5.27% | 2.63% | -2.5%
2 | CN(CC(=O)N(Cc1ccc(C2CCCCC2)cc1)c1ccc(C(=O)O)cc1)S(=O)(=O)c1c(F)c(F)c(F)c(F)c1F [SH-4-54] (max concentration tested 25000 nM) | 3.21 | 7.18 | 5.78 | 10.3 | 93% | 98.7% | 100%
3 | CC(C)NC(=O)COc1cccc(-c2nc(Nc3ccc4[nH]ncc4c3)c3ccccc3n2)c1 [SLx-2119] (max concentration tested 5000 nM) | 0 | 2.63 | 3.67 | 13.6 | 29.4% | 48.7% | 83.7%
4 | CCc1c2c(nc3ccc(O)cc13)-c1cc3c(c(=O)n1C2)COC(=O)[C@]3(O)CC [SN-38] (max concentration tested 10000 nM) | 20.4 | 36.1 | 22.9 | 36.9 | 100% | 77.9% | 99.7%
5 | O=C(Nc1cccc(Cl)c1)Nc1ncc(CCNc2ncnc3ccsc23)s1 [SNS-314] (max concentration tested 1000 nM) | 0 | 4.4 | 2.01 | 8.57 | 53.3% | 23.8% | 36.5%
6 | Cc1cc2c(C(=O)NC[C@H](C)c3ccccc3)c(O)c(O)cc2c(O)c1-c1c(C)cc2c(C(=O)NC[C@H](C)c3ccccc3)c(O)c(O)cc2c1O [Sabutoclax] (max concentration tested 25000 nM) | 0 | 19.6 | 4.91 | 17.3 | 99.7% | 96.5% | 89.2%
7 | CNC(=O)CN1CCC(Oc2cc3c(Nc4cccc(Cl)c4F)ncnc3cc2OC)CC1 [Sapitinib] (max concentration tested 1000 nM) | 0 | 0.17 | 0 | 0.48 | 11.1% | 9.33% | 15.3%
8 | O=C(/C=C\n1cnc(-c2cc(C(F)(F)F)cc(C(F)(F)F)c2)n1)NNc1cnccn1 [Selinexor] (max concentration tested 10000 nM) | 1.86 | 19.8 | 11.3 | 21.4 | 101% | 72.3% | 95.3%
9 | Cc1cc(C)c(/C=C2\C(=O)Nc3ccccc32)[nH]1 [Semaxanib] (max concentration tested 10000 nM) | 4.89 | 0 | 0 | 2.84 | -7.06% | 0.19% | 14.4%
10 | O=C(O)c1ccc2c(c1)nc(Nc1cccc(Cl)c1)c1ccncc12 [Silmitasertib] (max concentration tested 10000 nM) | 0 | 2.47 | 4.36 | 6.93 | 52.4% | 66.2% | 97.4%
11 | Cc1c(C(=O)Nc2ccc(N3C[C@@H](C)O[C@@H](C)C3)nc2)cccc1-c1ccc(OC(F)(F)F)cc1 [Sonidegib] (max concentration tested 10000 nM) | 0 | 1.21 | 3.23 | 0 | 22.7% | 30.6% | 8.09%
12 | C=CC(=O)Nc1cccc(Nc2nc(Nc3ccc(OCCOC)cc3)ncc2F)c1 [Spebrutinib] (max concentration tested 1000 nM) | 0 | 0.45 | 0.48 | 0.89 | 12.6% | 20.7% | 15.3%
13 | CC(C)(O)CC(=O)NCCn1ccc2ncnc(Nc3ccc(Oc4cccc(C(F)(F)F)c4)c(Cl)c3)c21 [TAK-285] (max concentration tested 2500 nM) | 0 | 0 | 0.89 | 0 | -0.95% | -2.72% | 6.24%
14 | N#Cc1c(Oc2ccc(F)c(NC(=O)Cc3cccc(C(F)(F)F)c3)c2)ccc2nc(NC(=O)C3CC3)sc12 [TAK-632] (max concentration tested 10000 nM) | 0 | 1.14 | 1.38 | 0 | 32.1% | 37.5% | 10.2%
15 | CCc1nc(-c2cccc(C)c2)c(-c2ccnc(NC(=O)c3ccccc3)c2)s1 [TAK-715] (max concentration tested 10000 nM) | 0 | 2.55 | 0.81 | 2.91 | 27.9% | 19.3% | 24%
16 | COc1cc(C(=O)NC2CCN(C)CC2)c(F)cc1Nc1ncc2c(n1)N(C1CCCC1)CC(F)(F)C(=O)N2C [TAK-960] (max concentration tested 2500 nM) | 0 | 0.18 | 0 | 0 | 16.2% | 11.9% | 2.44%
17 | Cc1cccc(-c2[nH]c(CNc3ccccc3F)nc2-c2ccc3ncnn3c2)n1 [TEW-7197] (max concentration tested 2500 nM) | 0 | 0.08 | 1.89 | 0 | 13.1% | 23.2% | -10.6%
18 | Nc1nc(N)c2nc(-c3cccc(O)c3)c(-c3cccc(O)c3)nc2n1 [TG100-115] (max concentration tested 10000 nM) | 0 | 0 | 0 | 1.38 | 10.8% | 9.07% | 20.9%
19 | NC(=O)Nc1sc(-c2ccc(F)cc2)cc1C(N)=O [TPCA-1] (max concentration tested 25000 nM) | 0 | 1.36 | 3.59 | 3.91 | 17.7% | 41% | 46.1%
20 | Clc1ccccc1C(c1ccccc1)(c1ccccc1)n1cccn1 [TRAM-34] (max concentration tested 1000 nM) | 0 | 0.38 | 0.59 | 0 | 15.5% | 13.4% | 3.42%
21 | Cn1ncnc1[C@H]1c2n[nH]c(=O)c3cc(F)cc(c23)N[C@@H]1c1ccc(F)cc1 [Talazoparib] (max concentration tested 1000 nM) | 0 | 1.84 | 3.37 | 15.5 | 25.4% | 21.9% | 61.3%
22 | C[C@@H]1CN(Cc2ccc(F)cc2)[C@@H](C)CN1C(=O)c1cc2c(C(=O)C(=O)N(C)C)cn(C)c2cc1Cl [Talmapimod] (max concentration tested 10000 nM) | 0 | 0 | 0.11 | 6.19 | -10% | 13.9% | 37.4%
23 | O[C@H]1CC[C@H](Nc2ncc3nc(Nc4c(F)cc(F)cc4F)n([C@H]4CCOC4)c3n2)CC1 [Tanzisertib] (max concentration tested 10000 nM) | 0 | 0 | 0 | 1.56 | -2.81% | -0.16% | 11.6%
24 | Cc1nc(-c2cn3c(n2)-c2ccc(-c4cnn(C(C)(C)C(N)=O)c4)cc2OCC3)n(C(C)C)n1 [Taselisib] (max concentration tested 1000 nM) | 0 | 0.87 | 0.7 | 11.9 | 18.1% | 26.4% | 66.6%
25 | COc1cccc2c1c(O)c(C(=O)N(C)c1ccc(C(F)(F)F)cc1)c(=O)n2C [Tasquinimod] (max concentration tested 10000 nM) | 0 | 0 | 0.69 | 3.88 | 8.66% | 11.8% | 20.7%
26 | CCN(c1cc(-c2ccc(CN3CCOCC3)cc2)cc(C(=O)NCc2c(C)cc(C)[nH]c2=O)c1C)C1CCOCC1 [Tazemetostat] (max concentration tested 10000 nM) | 0 | 0.07 | 0.52 | 0 | 12.6% | 10.9% | 0.37%
27 | CNC(=O)c1cc(COc2nnc(Nc3ccc(Cl)cc3)c3ccoc23)ccn1 [Telatinib] (max concentration tested 10000 nM) | 0 | 0 | 0 | 0.77 | 8.79% | 5.71% | 6.98%
28 | Cn1nnc2c(C(N)=O)ncn2c1=O [Temozolomide] (max concentration tested 100000 nM) | 0 | 1.67 | 0 | 0.08 | 20.4% | 8.55% | 11.6%
29 | O=c1sn(-c2cccc3ccccc23)c(=O)n1Cc1ccccc1 [Tideglusib] (max concentration tested 3000 nM) | 0 | 0 | 0 | 0 | 2.01% | 6.62% | 3.93%
30 | Cc1cc(Nc2cc(N3CCN(C)CC3)nc(Sc3ccc(NC(=O)C4CC4)cc3)n2)n[nH]1 [Tozasertib] (max concentration tested 10000 nM) | 0 | 8.18 | 4.85 | 12.9 | 61.5% | 31.3% | 45.5%
